melting point	Compound
167 °C	N=C(N)Nc1nc2ccccc2n1Cc1ccccc1
128 to 131 °C	NNCC1(O)c2ccccc2C=Cc2ccccc21
83 to 85 °C	CCCN(c1ccccc1)S(=O)(=O)c1ccc(C(CC2CCCC2)C(=O)Nc2nc3ccc(OC)nc3s2)cc1 (configuration not stated)
76.5 to 77.5 °C	CC(C)c1cccc(C(C)C)c1NC(=O)CSCCCCCCCCCCCCN1CCN(c2ccccc2)CC1
45 to 46 °C	CC(C)n1nc(OS(=O)(=O)C(F)(F)F)ccc1=O
117 to 118 °C	COc1ccc(C(NCC(=O)Nc2c(C(C)C)cccc2C(C)C)c2ccccc2)cc1 (configuration not stated)
102 to 105 °C	CNc1ccc(C2=NCCO2)cc1
125 to 128 °C	CC(C)C1(C)N=C2c3ncccc3C(=O)N2C1=O (configuration not stated)
176 to 178 °C	CC(c1oc2ccccc2c(=O)c1-c1cccc(F)c1)n1nc(-c2ccc(OCc3ccccc3)cc2)c2c(N)ncnc21 (configuration not stated)
186 to 188 °C	Fc1cccc(-c2nc3cc(Br)ccn3n2)c1
166 to 167 °C	CCCN(C=Cc1ccc([N+](=O)[O-])c2[nH]ncc12)CCC
195 to 197 °C	Cc1nc2ccccn2c1-c1csc(Nc2cccc(C(=O)Nc3ccccc3N)c2)n1
> 250 °C	COc1ccc(CCNc2nc(O)c(C(=O)c3ccco3)c(O)n2)cc1OC
126 to 130 °C	CCN1CCN(Cc2ccc(-c3cc4ncc(C#N)c(Nc5cc(OC)c(Cl)cc5Cl)c4cc3OC)cc2)CC1
231 to 233 °C	CCOC(=O)c1cnc2c(c1Cl)CN(C(=O)OCC)CC2
263 to 265 °C	Cc1cc(C)c2nn3c(SCc4ccccc4)nc(N)nc3c2n1
191 to 192 °C	CC(C)(C)OC(=O)COc1ccc(-c2c(Cl)c(CN3C(=O)CCC3=O)nc3sc4c(c23)CCSC4)cc1
135 °C	COC(=O)c1ccc(CBr)c(NC(=O)c2ccc(C(C)(C)C)cc2C(=O)OC(C)(C)C)c1
274 to 276 °C	O=C(Nc1ccncc1)C1=C(O)CCn2c1nc1ccccc12
153 to 156 °C	CC1(COc2ccc(Cc3nnn[nH]3)cc2)CCCCC1=NO (configuration not stated)
205 to 207 °C	O=S(=O)(Nc1ccc2c(OCc3coc(-c4ccc(Br)cc4)n3)cccc2c1)C(F)(F)F
162 to 164 °C	O=c1c2cc(Br)ccc2ncn1Cc1cccnc1
174 to 177 °C	O=c1c2c(Cc3cccc(OC(F)(F)F)c3)n[nH]c2c2cccnc2n1-c1cccc(OC(F)(F)F)c1

melting point	Compound
158 to 161 °C	Nc1cccc2c1Cc1ccccc1C2=O
181 to 182 °C	CCOC(=O)Nc1[nH]c2ccc(Sc3ccccc3)cc2c1C#N
210 to 212 °C	CC1(NC(=NC#N)Nc2cccnc2)CCC1
94 °C	Cc1ccc(C2CCc3ccccc3O2)cc1 (configuration not stated)
88.6 to 90.5 °C	CCOC(=O)c1ccc(-c2ccc(OCCCCCCCCCCCCBr)cc2)cc1
179 to 182 °C	COc1ccc(C2=NN(c3ccc([N+](=O)[O-])cc3)C(=O)[C@H]3CC=CC[C@@H]23)cc1OC (relative stereo)
149 to 150 °C	COc1ccc(Nc2ccc3c(n2)CC(C)(C)CC3=O)cc1
123 to 125 °C	COc1ccc2c(c1)-c1cc(OC)ccc1C2=O
139 to 140 °C	CCOC(=O)C1CCC2(CCN(S(=O)(=O)c3ccc(C)cc3)c3ccccc3C2)C1O (configuration not stated)
177 to 180 °C	CCc1nc2c(O)c(CCC(=O)c3ccccc3)c(C(=O)N(C)C)cc2n1C
130 to 131 °C	O=C(O)CCCC=Cc1nn(-c2ccccc2)c2c1CCC2
157 to 159 °C	COC(=O)c1c2n(c3ccccc13)Cc1ccccc1N1CCN(C)CC21 (configuration not stated)
59 to 60 °C	CCN(CC)CCOc1ccc(C#Cc2ccc(OC)cc2)cc1
81.2 to 82 °C	CC(C)(O)COc1ccc(CCCO)c(Oc2ncc(C(F)(F)F)cc2Cl)c1
105 °C	O=C(O)CCCCc1nn(-c2cccc(C(F)(F)F)c2)c2c1CCCC2
116 to 118 °C	Nc1sc2c(c1C(=O)c1cccs1)CCC(Cc1ccccc1)C2 (configuration not stated)
179 to 180 °C	CCCn1c(=O)c(-c2ccccc2)c2n(c1=O)CCCS2(=O)=O
184 to 185 °C	NC(=O)C(NC(=O)OCc1ccccc1)c1ccc(CC2CC2)[nH]1 (configuration not stated)
76 to 77 °C	Cc1c(Br)c(C)c2c(C)coc2c1Cc1ccc(C(C)C)cc1
91 to 104 °C	Cc1c(Cc2ccccc2)c(=O)oc2cc(OC(C)c3nnn[nH]3)cc(OC(C)c3nnn[nH]3)c12 (configuration not stated)
99 °C	CCCCc1nc(CO)c(C(=O)OC)n1Cc1ccc(-c2ccccc2C(=O)OC(C)(C)C)cc1
88 to 89 °C	COc1cc(OC)cc(N2CCN(C(=O)N(C)c3cc4ccccc4nc3OC)CC2)c1
67 to 69 °C	CC(=O)NC(C)Cc1cc(C)c(C)cc1CC(=O)O (configuration not stated)

melting point	Compound
180 °C	CC(=O)O[C@@H]1C2=C(OC(C(C)=O)=C[C@@H]2N2CCCCC2=O)SC1(C)C (relative stereo)
142 to 143 °C	Cc1c2cccc(-c3cccc(C(=O)NCCO)c3)c2nn1Cc1cccc(C(F)(F)F)c1
118 °C	CCOC(=O)c1ccc(-c2ccc(OCCCI)c(-c3ccc4c(c3)C(C)(C)CCC4(C)C)c2)cc1
219 to 222 °C	Cc1ccc2c(c1)N(CC(=O)c1ccccc1C)C(=O)C(NC(=O)Nc1cccc(C(=O)O)c1)CN2C(=O)c1cccs1 (configuration not stated)
276 to 277 °C	Cn1cc(Br)nc(Nc2ccc(C(=O)N3CCOCC3)cc2)c1=O
126 °C	FC(F)(F)c1cnc(CNC(=S)Nc2ccccc2Cl)c(Cl)c1
130 to 135 °C	O=C(NC(=S)NC1Cc2ccccc2C1)c1ccccc1
125 to 126 °C	Nc1nn(-c2c(Cl)cc(C(F)(F)F)cc2Cl)cc1C1CC1(Br)Br (configuration not stated)
174 to 175 °C	COC(=O)[C@H](Cc1c(Br)[nH]c2cc(Br)c(OC)cc12)NC(C)=O
165 to 166 °C	CCOCc1nc2c(N)nc3cccnc3c2n1CC1(O)CCCC1
253 to 254 °C	COc1cccc(Nc2c([N+](=O)[O-])cc(C(=O)O)cc2S(N)(=O)=O)c1
260 °C	NS(=O)(=O)c1cccc(-c2cn(-c3nc(-c4ccc(F)cc4)cc(C(F)(F)F)n3)cn2)c1
230 to 235 °C	CCCCC(=O)Nc1ccc(C2=N[C@H]3CCN(C)C[C@H]3c3cc(OC)c(OC)cc32)cc1 (relative stereo)
76 °C	NCC1COc2cc(F)cc(-c3cccc(Cl)c3)c2N1 (configuration not stated)
218 to 220 °C	C=Cn1cc(C(=O)O)c(=O)c2cc(F)c(N3CCOCC3)cc21
134 to 135 °C	CC(C)CC(C(=O)OCc1ccccc1)N1C(=O)C2(CCCN2C(=O)OC(C)(C)C)CC1O (mixture of isomers)
213 °C	Cc1ccc(S(=O)(=O)NC(=O)OCCc2ccc(-n3c(C(C)C)nc4c(C)nc(C)cc43)cc2)cc1
195 to 196 °C	O=C(Cc1c(-c2ccccc2)c2cc(CSc3ccccn3)c(Cl)cc2oc1=O)Nc1ccc(F)cc1C(F)(F)F
177 to 179 °C	COC(=O)C1=CC(C(=O)OC)NC(=O)N1 (configuration not stated)
49 °C	Cc1c(C=CCCCCCCCCCC(=O)O)cccc1C(=O)c1ccc(Cl)cc1
192 to 194 °C	CC(C)(C)c1cc(-c2nn(CCCC(=O)O)c3ncccc23)cc(C(C)(C)C)c1O
68 to 70 °C	C(=C/c1ccccc1)/COCCC1CCN(Cc2ccccc2)CC1
121 to 123 °C	Cc1c(-c2ccc(O)cc2)n(Cc2ccc(OCCN3CCCC(C)C3)cc2)c2ccc(O)cc12 (configuration not stated)

melting point	Compound
101 to 102 °C	Cc1oc(-c2cccs2)nc1COc1ccc(CON=C(CCCCC(=O)O)c2ccccc2)cc1
122 °C	CC(C#N)(c1ccc(F)cc1)c1ccc(N2NCC(=O)NC2=O)cc1Cl (configuration not stated)
221 °C	N#Cc1ncn2c(C(F)(F)F)cc(-c3cccc(Cl)c3)nc12
232 to 235 °C	CSc1nc2sccc2c(=O)[nH]1
203 °C	O=c1ccn([C@@H]2C=CCC[C@@H]2O)c(=O)[nH]1 (racemic)
116 to 119 °C	NC1CCN(CC23CC(c4ccccc42)c2ccccc23)CC1
299 to 302 °C	COc1ccc(N2CCOCC2)c2sc(-c3nc4c([nH]3)CCN(CC(N)=O)CC4)nc12
90 to 92.3 °C	Cc1cccc(Br)c1-c1c(C)cccc1Br
204 to 205 °C	CSc1ncncc1C(c1ccccc1F)C(C)(C)C(=O)O (configuration not stated)
216 to 219 °C	O=C(NNS(=O)(=O)c1ccccc1)c1ccc(-c2ccccc2)cc1
> 95 °C	c1ccc(CN(Cc2ccccc2)C2CCC3(CC2)OCCO3)cc1
61.5 to 63.5 °C	O=C(c1ccccc1)c1cnc2c(n1)CCCC2
110 to 115 °C	Nc1c(Cl)cc(C(=O)Cl)cc1C(F)(F)F
139 to 140 °C	Cn1c(Oc2cccc(C(F)(F)F)c2)nc2c(-c3cccc(C(=O)NCCO)c3)cccc21
106 to 119 °C	COc1cc(C2CCN(C(=O)CN)CC2)ccc1Nc1ncc2ccc(-c3ccccc3N(C)S(C)(=O)=O)n2n1
58 to 59 °C	CCOc1nn(Cc2ccc(Cl)cc2Cl)cc1CCCO
137 °C	CNc1ccc2c(c1)Sc1cc(NC)ccc1N2C(C)=O
83 to 84 °C	CC(O)C(C)(C)c1cc(Cn2cncn2)cc(C(C)(C)C#N)c1 (configuration not stated)
103 to 104 °C	CC(C)(C=O)S(=O)(=O)c1ccccc1
172 to 180 °C	Cc1ccc2c(cc(CCCC(=O)O)n2S(=O)(=O)c2ccccc2)n1
101 to 103 °C	CCCNC(C)=NC(=Nc1ccccc1)N1CCOCC1

Compound	melting point
CNC(=O)c1ccc(C2=NOC(c3cc(Cl)cc(Cl)c3)(C(F)(F)F)C2)cc1C (configuration not stated)	184 to 185 °C
OCc1nnc2n1-c1ccccc1C(c1ccccc1Cl)=NC2	196 to 197 °C
Cc1ccccc1NC(=O)CI	145 to 146 °C
Cc1ccc(OC2CCC3C4CC=C5CC(O[Si](C)(C)C(C)(C)C)CCC5(C)C4CCC23C)cc1 (configuration not stated)	137 to 138 °C
[N-]=[N+]=NS(=O)(=O)c1cc(C(=O)O)c(O)c(S(=O)(=O)N=[N+]=[N-])c1	184 to 186 °C
c1ccc2sc(C3CCNCC3)cc2c1	82 to 84 °C
N#CC1(c2ccccc2)CCN(C(=O)N2CCCc3ccccc32)CC1	53 to 59 °C

Reference: a melting point compilation (Tetko et al.; mined from patent text by program, amines drawn as free bases though some values may be those of a salt)
